Test results from patent US10975081B2, “Substituted fused pyrazole compounds and their use as LRRK2 inhibitors” (GlaxoSmithKline Intellectual Property Development Limited, priority 2015, dated 2021).
Counter-ions that a name gives are not always drawn.

How the values were obtained:
[1] = molecular target: LRRK2 Ser935 phosphorylation in SH-SY5Y cells over-expressing recombinant full length LRRK2 (Homo sapiens (Human), UniProt Q5S007); assay: Recombinant cellular LRRK2 AlphaScreen assay; assay type: cell-based; settings: 60 minutes, read-out: Recombinant cellular LRRK2 alphaScreen assay (pIC50) (converted)
Chain of LRRK2 Ser935 phosphorylation in SH-SY5Y cells over-expressing recombinant full length LRRK2 (Q5S007 whole entry): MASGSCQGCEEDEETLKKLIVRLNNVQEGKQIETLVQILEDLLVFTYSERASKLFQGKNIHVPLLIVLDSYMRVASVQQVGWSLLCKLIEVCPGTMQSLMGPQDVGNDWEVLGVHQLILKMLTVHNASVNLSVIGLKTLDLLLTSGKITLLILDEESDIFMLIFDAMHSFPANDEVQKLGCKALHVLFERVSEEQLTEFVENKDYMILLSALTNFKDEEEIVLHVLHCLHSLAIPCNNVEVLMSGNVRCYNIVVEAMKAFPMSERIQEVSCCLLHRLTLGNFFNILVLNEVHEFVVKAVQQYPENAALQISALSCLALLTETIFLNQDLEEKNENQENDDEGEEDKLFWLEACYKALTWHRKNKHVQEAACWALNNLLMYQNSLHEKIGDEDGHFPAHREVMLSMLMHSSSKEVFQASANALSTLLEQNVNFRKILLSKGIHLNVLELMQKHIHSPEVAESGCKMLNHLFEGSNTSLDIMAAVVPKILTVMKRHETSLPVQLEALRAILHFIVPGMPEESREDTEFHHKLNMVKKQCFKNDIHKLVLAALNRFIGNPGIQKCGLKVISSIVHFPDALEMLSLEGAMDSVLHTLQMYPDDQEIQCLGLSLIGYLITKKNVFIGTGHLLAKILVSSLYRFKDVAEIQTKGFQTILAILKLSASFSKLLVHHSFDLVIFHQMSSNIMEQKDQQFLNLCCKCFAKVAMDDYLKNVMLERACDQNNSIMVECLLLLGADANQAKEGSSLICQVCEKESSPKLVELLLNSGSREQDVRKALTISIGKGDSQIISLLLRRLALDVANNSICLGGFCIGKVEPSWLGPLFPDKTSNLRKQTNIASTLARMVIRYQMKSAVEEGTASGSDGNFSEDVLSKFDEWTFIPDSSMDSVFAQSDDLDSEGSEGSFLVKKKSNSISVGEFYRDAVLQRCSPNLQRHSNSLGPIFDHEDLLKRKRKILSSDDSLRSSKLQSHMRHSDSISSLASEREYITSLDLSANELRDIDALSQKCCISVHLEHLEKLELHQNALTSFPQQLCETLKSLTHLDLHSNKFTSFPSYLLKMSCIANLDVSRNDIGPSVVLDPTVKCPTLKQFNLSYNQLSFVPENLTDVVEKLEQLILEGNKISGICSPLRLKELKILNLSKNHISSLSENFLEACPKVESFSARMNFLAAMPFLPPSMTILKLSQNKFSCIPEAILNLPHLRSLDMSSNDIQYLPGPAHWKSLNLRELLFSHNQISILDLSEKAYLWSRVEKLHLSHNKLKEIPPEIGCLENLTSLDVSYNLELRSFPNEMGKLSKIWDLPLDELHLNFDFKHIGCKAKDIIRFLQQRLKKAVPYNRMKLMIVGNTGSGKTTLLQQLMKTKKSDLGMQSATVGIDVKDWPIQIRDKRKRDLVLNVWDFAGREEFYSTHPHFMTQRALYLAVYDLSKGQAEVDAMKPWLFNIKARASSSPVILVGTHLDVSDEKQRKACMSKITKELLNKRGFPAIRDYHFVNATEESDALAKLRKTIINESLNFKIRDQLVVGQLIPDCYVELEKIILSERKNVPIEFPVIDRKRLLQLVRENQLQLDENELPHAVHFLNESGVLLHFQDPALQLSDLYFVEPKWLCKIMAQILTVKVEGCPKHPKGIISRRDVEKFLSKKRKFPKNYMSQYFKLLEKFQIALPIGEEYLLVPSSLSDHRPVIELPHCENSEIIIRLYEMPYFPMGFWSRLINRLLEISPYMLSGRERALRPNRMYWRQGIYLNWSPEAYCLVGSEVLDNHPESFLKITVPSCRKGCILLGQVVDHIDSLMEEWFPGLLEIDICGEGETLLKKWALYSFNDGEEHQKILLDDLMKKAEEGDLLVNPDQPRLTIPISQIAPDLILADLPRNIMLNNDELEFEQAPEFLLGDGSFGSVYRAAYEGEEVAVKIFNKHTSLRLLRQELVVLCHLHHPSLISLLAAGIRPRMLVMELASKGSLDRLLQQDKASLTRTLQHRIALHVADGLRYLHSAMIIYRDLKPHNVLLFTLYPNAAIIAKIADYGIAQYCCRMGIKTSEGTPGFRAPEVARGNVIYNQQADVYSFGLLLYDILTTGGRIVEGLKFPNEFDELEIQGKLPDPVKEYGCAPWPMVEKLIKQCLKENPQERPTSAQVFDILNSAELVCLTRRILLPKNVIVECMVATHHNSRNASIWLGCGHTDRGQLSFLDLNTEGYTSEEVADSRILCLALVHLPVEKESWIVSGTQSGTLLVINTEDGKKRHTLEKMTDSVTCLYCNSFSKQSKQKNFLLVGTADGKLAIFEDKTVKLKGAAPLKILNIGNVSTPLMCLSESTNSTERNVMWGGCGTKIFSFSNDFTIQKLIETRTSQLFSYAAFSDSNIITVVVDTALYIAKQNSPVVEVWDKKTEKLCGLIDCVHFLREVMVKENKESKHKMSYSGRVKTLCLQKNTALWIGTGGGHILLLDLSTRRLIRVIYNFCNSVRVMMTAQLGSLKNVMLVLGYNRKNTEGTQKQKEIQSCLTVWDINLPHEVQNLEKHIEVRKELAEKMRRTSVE
Description: To determine the activity of compounds against LRRK2 kinase activity in cells, the observed LRRK2 kinase-dependent modulation of LRRK2 Ser 935 phosphorylation (Dzamko et al., 2010, Biochem. J. 430: 405-413) was utilized to develop a quantitative 384 well plate-based immunoassay of LRRK2 Ser935 phosphorylation in the human neuroblastoma cell line SH-SY5Y, engineered to over-express recombinant full length LRRK2 protein.
A BacMam virus expressing full length recombinant LRRK2 was purchased from Invitrogen and amplified by inoculation of SF-9 cells at MOI 0.3 for 4-5 days in Sf-900 III SFM medium supplemented with 3% fetal bovine serum. Infected cell cultures were then centrifuged at 2000 g for 20 minutes, viral supernatant titer determined by anti-gp64 plaque assay and stored at 4° C.
Affinity-purified anti-phospho LRRK2 Ser935 sheep polyclonal antibody (Dzamko et al., 2010, Biochem. J. 430: 405-413) was biotinylated by standard methods (PerkinElmer). Anti-LRRK2 rabbit polyclonal antibody was purchased from Novus Biologicals. AlphaScreen Protein A IgG Kit (including acceptor and donor beads) was purchased from Perkin Elmer.
SH-SY5Y cells were grown in DMEM/F12 medium with 10% dialysed fetal bovine serum and harvested by treatment with 0.5% trypsin-EDTA for 5 minutes at 37° C. followed by centrifugation at 1000 rpm for 4 minutes. The cell pellet was resuspended in Opti-MEM reduced serum media (Invitrogen) at 200,000 cells/ml and mixed with the BacMam LRRK2 virus at M01=50. 50 μl cell solutions were then dispensed to each well of a 384-well plate and incubated at 37° C., 5% CO2 for 24 hours.
Serial dilutions of test compounds were prepared in Opti-MEM reduced serum media (Invitrogen) and 5.6 ul transferred from compound plate to cell assay plate to achieve a top final assay concentration of 10 uM. DMSO was used in certain wells as controls. Cells were incubated at 37° C., 5% CO2 for 60 minutes. The medium was then removed and cells lysed by addition of 20 ul cell lysis buffer (Cell Signaling Technology) and incubation at 4° C. for 20 minutes. 10 ul of antibody/acceptor bead mix [( 1/1000 biotinylated-pS935 LRRK2 antibody, 1/1000 total-LRRK2 antibody, 1/100 Acceptor beads in AlphaScreen detection buffer (25 mM Hepes (pH 7.4), 0.5% Triton X-100, 1 mg/ml Dextran 500 and 0.1% BSA)] was then added to each well and plates incubated for 2 hours at ambient temperature in the dark. 10 μl of donor beads solution (1/33.3 donor beads in AlphaScreen detection buffer) was then added to each well. Following incubation for a further 2 hours at ambient temperature in the dark, plates were read on an EnVision™ plate reader at emission 520-620 nm with excitation 680 nm. Dose response curve data was based on sigmoidal dose-response model.

[2] = molecular target: Truncated G2019 human LRRK2 (1326-2527) (Homo sapiens (Human), UniProt Q5S007); assay: Truncated G2019 human LRRK2 (1326-2527) inhibition mass spectrometry assay; assay type: biochemical; settings: 6HIS-Tev-LRRK2 (1326-2527), 25 uM LRRKtide, 20 uM ATP; for IC50: read-out: Truncated G2019 human LRRK2 inhibition mass spectrometry assay (pIC50) (converted)
Chain of Truncated G2019 human LRRK2 (1326-2527) (Q5S007 1326-2527): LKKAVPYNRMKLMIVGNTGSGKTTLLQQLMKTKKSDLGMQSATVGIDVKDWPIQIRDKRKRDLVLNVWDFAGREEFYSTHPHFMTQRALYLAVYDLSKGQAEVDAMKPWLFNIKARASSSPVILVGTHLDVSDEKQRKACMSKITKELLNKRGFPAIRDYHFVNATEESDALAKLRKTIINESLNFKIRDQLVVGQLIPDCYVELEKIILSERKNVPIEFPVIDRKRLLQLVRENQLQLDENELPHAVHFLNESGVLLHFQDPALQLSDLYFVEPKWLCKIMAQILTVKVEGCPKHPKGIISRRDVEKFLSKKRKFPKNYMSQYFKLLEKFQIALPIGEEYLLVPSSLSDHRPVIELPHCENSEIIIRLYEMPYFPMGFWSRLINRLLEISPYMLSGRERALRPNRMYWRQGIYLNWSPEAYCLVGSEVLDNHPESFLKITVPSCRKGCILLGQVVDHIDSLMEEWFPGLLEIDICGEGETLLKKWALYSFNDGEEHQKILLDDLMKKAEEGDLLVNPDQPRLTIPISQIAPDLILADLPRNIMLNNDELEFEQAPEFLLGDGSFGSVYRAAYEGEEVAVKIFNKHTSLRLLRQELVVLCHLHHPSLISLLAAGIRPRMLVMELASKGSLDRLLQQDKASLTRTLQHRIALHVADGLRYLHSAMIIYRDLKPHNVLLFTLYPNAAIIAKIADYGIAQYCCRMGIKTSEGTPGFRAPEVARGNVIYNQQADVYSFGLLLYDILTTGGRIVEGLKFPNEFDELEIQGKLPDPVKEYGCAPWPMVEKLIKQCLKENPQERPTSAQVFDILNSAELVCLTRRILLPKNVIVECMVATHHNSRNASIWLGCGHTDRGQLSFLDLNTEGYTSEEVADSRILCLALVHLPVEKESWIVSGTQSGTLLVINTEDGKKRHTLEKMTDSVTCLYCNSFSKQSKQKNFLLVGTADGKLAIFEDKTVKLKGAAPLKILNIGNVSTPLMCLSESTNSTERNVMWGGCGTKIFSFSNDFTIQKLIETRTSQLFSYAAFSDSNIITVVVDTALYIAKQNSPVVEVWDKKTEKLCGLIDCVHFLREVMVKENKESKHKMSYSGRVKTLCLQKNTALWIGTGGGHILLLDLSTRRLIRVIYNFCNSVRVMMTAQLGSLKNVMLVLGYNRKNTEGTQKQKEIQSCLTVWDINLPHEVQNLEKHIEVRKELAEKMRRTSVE
Description: 1) Truncated G2019 Human LRRK2 (1326-2527) Inhibition Mass Spectrometry Assay
A LRRK2 cDNA encoding residues 1326-2527 was received from Dundee University (described in M. Jaleel et al., 2007, Biochem J, 405: 407-417). This gene fragment was subcloned into pFB-HTb (Invitrogen) using BamHI and NotI restriction sites. The LRRK2 plasmid was recombined into the baculovirus genome according to the BAC-to-BAC protocol described by Invitrogen. Transfection into Spodoptera frugiperda (Sf9) insect cells was performed using Cellfectin (Invitrogen), according to the manufacturer's protocol to generate P1 and P2 baculovirus stocks.
Sf9 cells were grown in HyClone SFX (Thermo Scientific) growth media at 27° C., 80 rpm in shake flask until of a sufficient volume to inoculate a bioreactor. The cells were grown in a 20 litre working volume Wave bioreactor (GE Healthcare) at 27° C., 50% dissolved oxygen and an agitation rate 22 rocks per minute, 10 degree rock angle, 200 ml/min air with a cell concentration of approximately 6xe6 cells/ml. The cells were infected with P2 Baculovirus at a multiplicity of infection (MOI) of 3. The cultivation was continued for a 48 hour expression phase. The infected cells were removed from the growth media by centrifugation at 2500 g using a Sorvall RC 3C Plus centrifuge at 2500 g for 20 minutes. The cell pellet was immediately frozen and subsequently supplied for purification.
A 260 g pellet was allowed to thaw in a water bath at 27° C. with 800 ml lysis buffer/buffer A (50 mm Tris-HCl pH 8.5, 300 mM NaCl, 1 mm DTT, 10% glycerol, 1 ml/L Calbiochem complete protease inhibitor cocktail and benzonase (50 ul/800 ml)) before being dounce homogenised on ice using 20 strokes per 100 ml. The suspension was packed in ice and sonicated at 50% amplitude for 3 min 10 sec on/off using a ¾″ probe. The suspension was then centrifuged at 100,000 g for 90 min, at 4° C.
The lysate (700 ml) was decanted from the insoluble pellet and contacted for 3h at 4° C. with 10 ml His bind Ni NTA resin by end over end mixing. The resin was recovered by centrifugation, 3000 g, 5 min at 4° C., and packed in an XK16 column. The column was then washed with 10 column volumes buffer A, 10 column volumes buffer B (buffer A+1M NaCl) and 10 column volumes buffer C (buffer A+20 mM imidazole). The column was then eluted with 15 column volumes buffer D (buffer A+300 mM imidazole) collecting 2 ml fractions. All washes and elution were conducted at 4 ml/min.
Fractions identified by SDS-PAGE as containing protein of interest were pooled and loaded directly onto a 320 ml SEC Superdex 200 pg column that was pre-equilibrated with buffer E (50 mM Tris-HCl pH 8.5, 300 mM NaCl, 10% glycerol, 1 mM DTT). The column was loaded and eluted with 1.2 column volumes buffer E at 2 ml/min collecting 2 ml fractions. Fractions identified by SDS-PAGE as containing protein of interest were tested for activity.
Production of LRRKtide for LRRK2 Inhibition Mass Spectrometry Assay
The ‘LRRKtide’ peptide (SEQ ID NO. 10) was synthesized as follows. The protected peptide was assembled on a solid-phase synthesiser using preloaded Wang resin and utilising standard Fmoc synthesis protocols. The crude peptide was obtained after cleavage from the resin with a mixture of trifluoroacetic acid (TFA), triisopropylsilane and water (95:2.5:2.5) for 3 hours at room temperature and was then purified using a C18 reverse-phase column utilising a 0.1% TFA-buffered water/acetonitrile gradient. The resulting fractions were analysed and fractions which were >95% pure by analytical HPLC and giving the correct molecular weight (mw) (by MALDiTOF mass spectroscopy) were pooled and freeze dried. The final material was analysed by HPLC and MALDiTOF mass spectroscopy.
Truncated G2019 Human LRRK2 (1326-2527) Inhibition Mass Spectrometry Assay […]

Compound | IC50 [1] [µM] | IC50 [2] [µM] | Truncated G2019 human LRRK2 inhibition mass spectrometry assay (pIC50) [2]
COc1nc(N2CCOCC2)cc(-n2ncc3cc(C)c(C4CCN(C)CC4(F)F)cc32)n1 (single isomer, unassigned) [Example E4, 4-(6-(6-(3,3-Difluoro-1-methylpiperidin-4-yl)-5-methyl-1H-indazol-1-yl)-2-methoxypyrimidin-4-yl)morpholine] | 0.0251 | 0.00794 | –
CNC(=O)[C@H]1CN(c2cc(-n3ncc4cc(C)c(C5CCN(C)CC5(F)F)cc43)nc(OC)n2)CCO1 (single isomer, unassigned) [Example E18] | 0.0126 | 0.0126 | –
COc1nc(N2CCOCC2)cc(-n2ncc3cc(C)c(C4CCN(C5COC5)CC4(F)F)cc32)n1 (single isomer, unassigned) [Example E22, 4-(6-(6-(3,3-Difluoro-1-(oxetan-3-yl)piperidin-4-yl)-5-methyl-1H-indazol-1-yl)-2-methoxypyrimidin-4-yl)morpholine] | 0.0126 | 0.00794 | –
COc1nc(N2CC(O)C2)cc(-n2ncc3cc(C)c(C4CCN(C)CC4F)cc32)n1 (single isomer, unassigned) [Example E38, (cis)-1-(6-(6-(3-Fluoro-1-methylpiperidin-4-yl)-5-methyl-1H-indazol-1-yl)-2-methoxypyrimidin-4-yl)azetidin-3-ol] | 0.0316 | – | 8
COc1nc(N2CC(O)C2)cc(-n2ncc3cc(C)c(C4CCN(C)CC4F)cc32)n1 (single isomer, unassigned) [Example E39, (cis)-1-(6-(6-(3-Fluoro-1-methylpiperidin-4-yl)-5-methyl-1H-indazol-1-yl)-2-methoxypyrimidin-4-yl)azetidin-3-ol] | 0.00501 | 0.01 | –
Cc1nc(N2CC(O)C2)cc(-n2ncc3cc(C)c(C4CCN(C)CC4F)cc32)n1 (single isomer, unassigned) [Example E40, (cis)-1-(6-(6-(3-Fluoro-1-methylpiperidin-4-yl)-5-methyl-1H-indazol-1-yl)-2-methylpyrimidin-4-yl)azetidin-3-ol] | 0.0501 | 0.0126 | –
Cc1nc(N2CC(O)C2)cc(-n2ncc3cc(C)c(C4CCN(C)CC4F)cc32)n1 (single isomer, unassigned) [Example E41, (cis)-1-(6-(6-(3-Fluoro-1-methylpiperidin-4-yl)-5-methyl-1H-indazol-1-yl)-2-methylpyrimidin-4-yl)azetidin-3-ol] | 0.126 | – | 7.9
Cc1cc2cnn(-c3cc(N4CC(O)C4)nc(OC(F)F)n3)c2cc1C1CCN(C)CC1F (single isomer, unassigned) [Example E48, (cis)-1-(2-(Difluoromethoxy)-6-(6-(3-fluoro-1-methylpiperidin-4-yl)-5-methyl-1H-indazol-1-yl)pyrimidin-4-yl)azetidin-3-ol] | – | ≤ 10 | –
COc1nc(N2CCOCC2)cc(-n2ncc3cc(C)c([C@H]4CCNC[C@H]4F)cc32)n1 (single isomer, unassigned) [Example E62, (cis)-4-(6-(6-(3-Fluoropiperidin-4-yl)-5-methyl-1H-indazol-1-yl)-2-methoxypyrimidin-4-yl)morpholine hydrochloride] | 0.0501 | 0.00794 | –
COc1nc(N2CC(C#N)C2)cc(-n2ncc3cc(C)c(C4CCNCC4(F)F)cc32)n1 (single isomer, unassigned) [Example E66, 1-(6-(6-(3,3-Difluoropiperidin-4-yl)-5-methyl-1H-indazol-1-yl)-2-methoxypyrimidin-4-yl)azetidine-3-carbonitrile] | 0.126 | 0.0316 | –

Results, then the molecule that gave them:

IC50 [1] [µM] | IC50 [2] [µM] | Truncated G2019 human LRRK2 inhibition mass spectrometry assay (pIC50) [2] | Compound
≤ 0.1 | – | – | Cc1nc(N2CCOC(C(C)O)C2)cc(-n2ncc3cc(C)c(C4CCN(C5COC5)CC4)cc32)n1 (single isomer, unassigned) [Example E268, 1-(4-(2-Methyl-6-(5-methyl-6-(1-(oxetan-3-yl)piperidin-4-yl)-1H-indazol-1-yl)pyrimidin-4-yl)morpholin-2-yl)ethanol]
> 10 | – | – | Cc1nc(N2CCO[C@H](CO)C2)cc(-n2ncc3cc(C)c(C4CCCCO4)cc32)n1 (single isomer, unassigned) [Example E271]
> 10 | – | – | Cc1nc(N2CC(O)C2)cc(-n2ncc3cc(C)c(C4CCCOC4)cc32)n1 (single isomer, unassigned) [Example E272, 1-(2-Methyl-6-(5-methyl-6-(tetrahydro-2H-pyran-3-yl)-1H-indazol-1-yl)pyrimidin-4-yl)azetidin-3-ol]
≤ 0.1 | – | – | Cc1nc(N2CC(O)C2)cc(-n2ncc3cc(C)c(C4CCOCC4)cc32)n1 [Example E89, 1-(2-Methyl-6-(5-methyl-6-(tetrahydro-2H-pyran-4-yl)-1H-indazol-1-yl)pyrimidin-4-yl)azetidin-3-ol]
≤ 0.1 | – | – | COc1nc(N2CC(OCCO)C2)cc(-n2ncc3cc(C)c(C4CCOCC4)cc32)n1 [Example E237, 2-((1-(2-Methoxy-6-(5-methyl-6-(tetrahydro-2H-pyran-4-yl)-1H-indazol-1-yl)pyrimidin-4-yl)azetidin-3-yl)oxy)ethanol]
≤ 0.1 | – | – | Cc1nc(N2CC(O)C2)cc(-n2ncc3cc(Cl)c(N4CCC(O)CC4)cc32)n1 [Example E258, 1-(5-Chloro-1-(6-(3-hydroxyazetidin-1-yl)-2-methylpyrimidin-4-yl)-1H-indazol-6-yl)piperidin-4-ol]
